The values that follow come from patent publication US6740637B1, “Chlorophyll and bacteriochlorophyll derivatives, their preparation and pharmaceutical compositions comprising them” (priority 1998, dated 2004).

The structures appear in SMILES notation. Entries after “also recorded” stand apart in the source; their conditions may differ. A value given as a limit tells only on which side of the number the result lay.

For data set [1], the system named is Herpes simplex virus-1 (HSV-1) (in free suspension). Nature of the data set: PDT of HSV-1 in suspension, plaque assay. It is filed as cell-based, Herpes simplex virus type 1. On the procedure: For viral infection Vero cells (2×10^4/well) were cultured at 37° C. for 2 days in 24 well microplates. The culture medium was replaced with fresh medium containing 2% FBS and the cells infected with HSV-1 (200 μl) at multiplicity of infection (MOI) of 1-3. The cells were further incubated at 37° C. for 3 days. The medium was collected and centrifuged for 5 min in a clinical centrifuge to remove cells and cell debris. The concentration of viral particle was determined as described below and the suspension was aliquoted and kept at −80° C. until used.
Vero cells were inoculated with 10 fold dilutions of HSV-1 and cultured for 2 h at 37° C. The medium was then replaced with fresh DMEM containing 2% FBS and 0.7% methylcellulose and the cells were further incubated for 3 days. The overlayer was then decanted and the cells fixed and stained with crystal violet. Virus induced plaques were manually counted and plaque forming units (PFU/ml) were calculated.
HSV-1 suspended in culture medium to a concentration of 2×10^6 PFU/ml was dispensed (0.5 ml/well) into 24 well microplates and incubated in the dark for 1 h at 37° C. in the absence or presence of the indicated Chl-Ser concentrations. The experimental groups were then exposed to light for 10 min. The appropriate controls described above were included in each experiment. Viral survival was quantitated as described above.

The test system of data set [2] is C57Bl mice. Nature of the data set: Toxicity of serine conjugates in mice in the absence of irradiation. It is filed as in vivo, mouse. To be noted: injections of up to 40 mg/kg body weight, up to 14 days, no irradiation. On the procedure: (d) Toxicity of the Chl and Bchl-serine conjugates Chla-L-Ser-OMe and Bchla-L-Ser-OMe in C57Bl mice under normal housing conditions in the absence of irradiation was estimated by injection of the compound dissolved in 10% ethanol/PBS. Control mice were injected with the vehicle only. […] This dose of drug was thus far the highest used and LD50 vs. EC50 of treatment (margins of therapeutic index) have yet to be determined.

The test system of data set [3] is M2R mouse melanoma cells. Nature of the data set: Photodynamic toxicity to melanoma cell monolayer: morphology and Propidium Iodide staining. Particulars: 4×10^−6M pigment, 10 min irradiation at 670 nm (light source A), examined 3 h later. It is filed as cell-based. On the procedure:
The photodynamic effect of Chlidea and Chla-L-Ser-OMe conjugate on melanoma cells in culture was tested as follows: M2R mouse melanoma cells as monolayers (to 100% confluence) were treated with the pigments Chla, Chlidea and Chla-L-Ser-OMe for 30 minutes. Subsequently the cultures were irradiated for 10 minutes from the top with a 5mW GaAs diode laser at 670 nm (light source A), a 150W Xenon lamp at 5000 μEinstein/cm^2 (light source B), or a 90W halogen lamp at 1500 μEinstein (light source C). The control groups included untreated cells, pigment- treated cells that were kept in the dark and irradiated untreated cells. Three hours after irradiation, the changes in cell morphology due to irradiation were examined by phase contrast microscopy.
Evaluation of the cytolytic activity of the various Chl and Bchl derivatives was carried out by assessing cell death in the photodynamically treated area of the monolayer by staining of the cells with, and monitoring the red fluorescence of, Propidium Iodide ([2,7-diamino-9-phenyl-10-(diethylamino-propyl)-phenathridinium iodide meth-iodide]) (PID) which is excluded from intact/live cells and selectively accumulates in nuclei of damaged cells. Examination of fluorescing nuclei in the stained culture was done by fluorescence microscopy (Yeh, 1981). […]

Data set [4] relates to M2R cells. It is filed as cell-based, mouse. The method, then:
Alternatively, photodynamic toxicity was determined by [^3H] thymidine incorporation. In this case, changes in rates of [^3H] thymidine incorporation following PDT were performed as follows: Cell cultures (4-5×10^4 cells/well in about 40-50% confluency grown in 10% fetal bovine serum) were pulsed with 1μ Ci/ml thymidine [methyl-^3H] for 2 h at 37° C. Cultures were then washed twice with cold phosphate-buffered saline (PBS), treated with 7.5% ice cold trichloroacetic acid (TCA) for 30 min at 4° C., washed 2 times with ethanol. Cells were then dissolved in 0.3 ml of 1 M NaOH at 37° C. for 15 min. Samples of 100 μl were neutralized with 100 μl of 1N HCI and 4 ml of 0.1 M imidazole and counted in a 20:8 (vol/vol) xylene scintillator/Lumax mixture. […] Results are given as means±SD of triplicate determinations.

Consider `C=Cc1c(C)c2cc3nc(c4c5[n-]c(cc6nc(cc1[n-]2)C(C)=C6CC)c(C)c5C(=O)[C@@H]4C(=O)OC)[C@@H](CCC(=O)OC[C@H](N)C(=O)OC)[C@@H]3C.[Mg+2]` [Chla-L-Ser-OMe, L-seryl Methyl Ester Chlorophyllidea], for which, in data set [1], the “concentration of maximal toxicity” value is more than 20 nM. Besides, the EC50 in data set [1] (1 h with Chl-Ser, light 10 min, read-out: half maximal dose of sensitizer) is approximately 0.01 µM. For the same molecule, the “toxicity in the dark” value in data set [1] (tested concentration range, dark) is on record as “not toxic in the dark”. Further, in data set [2], the “effect on behavior and well being of mice” value is “no noticeable effect on the behavior and well being of the mice”. The “cell damage: morphology and PID labeling after irradiation” value in data set [3] was “cell damage was confined to the photodynamically treated area; also recorded: all the remaining damaged cells in area (A) became PID labeled”. Besides, the “[3H] thymidine incorporation without irradiation” value in data set [4] is listed as “not observed in the dark controls”. In data set [4] (60 min with increasing concentrations, light source B, 24 h later), the “[3H] thymidine incorporation after PDT” value is “dose dependent reduction in the ability of the cells to incorporate [^3H] thymidine”.
